Two compounds from US10242162B2 (LG Chem, Ltd., priority 2014, dated 2019) can be followed below.

The nature of this data set: Solubility measurement in water (Test Example). The format is physicochemical. The conditions noted are these: 25° C., 1 atm, 24 hr. On the procedure:
In order to evaluate the validity of the method of determining the water insolubility according to the present invention in the Example and Comparative Example, the following testing was performed.

SMILES strings stand for the structures.

With `CCC(C)O` (centres unmarked) [2-butanol], the “amount dissolved in 100 g of water” value is on record as 30 g.

For `c1ccc2ccccc2c1` [Bicyclo[4.4.0]deca-1,3,5,7,9-pentene], the “water solubility (in words)” value (100 g of water) is “approximated zero”.
